Measured values reported in US6710075B2, “Therapeutic compounds and methods” (The Government of the State of Sarawak, Malaysia, priority 2000, dated 2004).
pIC50: −log10 of the molar value. Like-named read-outs stand apart in the source and are kept apart here.

Tests used:
A549 = assay: Cytostatic activity, relative cell number by YOYO-1 DNA dye; assay type: cell-based, human
Protocol: (§1) (b) Compound A was assessed for cytotoxic and cytostatic activity against a panel of cell lines derived from a variety of human tumour types in addition to THP-1 and A549 cells (Table 5). These included K562 leukemic cells (Lozzio and Lozzio, 1975, Blood 45:321-34), PC3 prostate tumour cells (Kaighn et al., 1979, Invest. Urol. 17:16-23) and SF268 glioblastoma cells (Westphal et al, 1985, Biochem. Biophys. Res. Commun., 132:284-9). […] However, the cytotoxic potency of Compound A increased dramatically after 6 days of culture for the K562, A549 and SF268 cells.

SF268 = assay: as above; assay type: cell-based; details: Homo sapiens, SF-268, 72 h; SF268, brain; read-out: GI50 (3 day cultures)
Protocol: as §1

K562 = assay: as above; assay type: cell-based; details: Homo sapiens, 72 h; K562, leukemia; read-out: GI50 (3 day cultures)
Protocol: as §1

PC3 = assay: as above; assay type: cell-based; details: Homo sapiens, PC-3, 72 h; PC3, prostate; read-out: GI50 (3 day cultures)
Protocol: as §1

[1] = tested on: PC3 human prostate tumour cells; assay: Mouse xenograft tumour model; assay type: in vivo; details: 3 mg/kg intraperitoneal three times a week
Protocol: Athymic Balb/c nude mice (Rygard and Povisen, 1969, Acta Pathol Microbiol Scand, 77: 758) were inoculated subcutaneously in the dorsal flank with 2×10^6 PC3 cells. Compound A was administered (3 mg/kg) after eight days when the tumours became palpable by intraperitoneal injection three times a week. Compound A was first solubilized in ethanol then mixed 1:1 with cremaphore and diluted in saline for injection. Control animals were treated in an analogous manner with the same vehicle but lacking Compound A. (A) Effect of Compound A on mean tumour volume. Tumour volumes were measured using a micrometer caliper at the indicated times. The data represents mean tumour volume ±SEM (B) Effect of Compound A on mean tumour mass. At the end of the experiment (29 days post inoculation of PC3 cells) the mice were sacrificed, the tumours excised and then weighed. The data represents mean tumour weight ±SEM.
The ability of Compound A to inhibit growth of human tumour cells in vivo was assessed using male athymic mice injected subcutaneously in the dorsal flank region with 2×10^6 PC3 human prostate tumour cells. Compound A administration (3 mg/kg) by intraperitoneal injection commenced after eight days once the PC3 tumour was palpable and continued three times a week until 29 days after the initial inoculation of the tumour cells. At this time all mice were killed and tumours excised and weighed.

THP-1 cells = assay: DNA synthesis, [14C]-thymidine uptake, THP-1 cells; assay type: cell-based, human; details: 48 hours
Source text: (a) Compounds A and B were identified from a bark sample of Aglaia leptantha through their ability to inhibit production of Tumour Necrosis Factor-α (TNF-α) by THP-1 human promonocytic leukemia cells (Tsuchiya, et al, Int. J. Cancer, 1980, 26(2):171-6) activated with lipopolysaccharide (LPS). Table 4 summarises the results comparing the activity of Compounds A and B for inhibition of TNF-α production to their effects on general cell metabolism measured using WST-1 reduction, DNA synthesis and protein synthesis assays for THP-1 cells. […] For comparison, the effects of Compounds A and B on A549 lung epithelial carcinoma cells (Leiber et al, Int. J. Cancer, 1976, 17(1)-62-70) were also measured and the data is also included in Table 4.

IGROVI = assay: NCI in vitro anticancer drug discovery screen (sulforhodamine B); assay type: cell-based; details: Homo sapiens, ovarian, 48 hr
Protocol: (§2) (c) Testing of Compound A against a much larger cell line panel in the NCI in vitro anticancer screen (Table 7) confirmed the results described above. […] Consistent with the data in Table 5 the cytotoxic effects measured after 2 days of culture were more varied with LC50 values ranging from 10 nM for COLO-205 colon tumour cells to ˜90 μM for 786-0 renal tumour cells.

M14 = assay: as above; assay type: cell-based; details: Homo sapiens, M14, melanoma, 48 hr
Protocol: as §2

NCI-H460 = assay: as above; assay type: cell-based; details: Homo sapiens, NCI-H460, lung, 48 hr
Protocol: as §2

786-0 = assay: as above; assay type: cell-based; details: Homo sapiens; for CC50: 786-0, 48 h, read-out: LC50 (the source's name)
Protocol: as §2

A549 cells = assay: Senescence-associated β-galactosidase (SA-β-gal) activity staining; assay type: cell-based, human; details: A549, 10-50 nM, 10 days
Protocol: A549 cells were seeded at 10,000 cell/well in 6 well plates in the presence or absence of varying concentrations of Compound A (10-50 nM) or 250 nM doxorubicin for 10 days prior to their processing and staining overnight for senescence-associated β-galactosidase activity as described previously (Dimri et al., 1995, Proc Natl Acad Sci USA 1995 92(20):9363-7). […] PC, phase contrast microscopy. BF, bright field microscopy Magnification×200.
This was evaluated further by measuring senescence-associated β-galactosidase (SA-β-gal) activity, a biomarker previously described to correlate well with senescence of human cells (Dimri et al., Proc Natl Acad Sci USA 1995 92(20):9363-7). […] Therefore, in addition to Compound A A549 cells were also treated with doxorubicin as an experimental control.

[2] = tested on: THP-1 monocytic leukemia cells; assay: Differentiation of THP-1 leukemic cells, morphology by phase contrast microscopy; assay type: cell-based, human; details: THP-1, 10 nM, prolonged exposure (4 days)
Protocol: THP-1 cells were cultured for 4 days in the presence or absence of 10 nM Compound A as indicated. Where shown cells were also treated with IFNγ (100 ng/ml) (3 days) or with PMA (0.1 μM) (4 days) in the presence or absence of Compound A. Images are of cells visualised by phase contrast microscopy (magnification×200).
This is a morphology highly characteristic of mature macrophages and similar morphological effects were observed when the cells were treated with other known inducers of macrophage differentiation including interferon-γ (IFNγ) or phorbol 12-myristate 13-acetate (PMA). To investigate this further the effects of Compound A on HL60 human promyelocytic leukemic cells (Collins, et al, Nature, 1977, 270:347-9) were examined (Table 11). This widely used cell line is well characterised as a model of human myelomonocytic differentiation (Collins, Blood, 1987, 70(5):1233-44). In this experiment monocytic differentiation was quantitated by measuring CD14 surface antigen expression by flow cytometric analysis CD14, all LPS-binding protein, is expressed on the surface of cells of the myelomonocytic lineage and is normally expressed at very low levels in undifferentiated HL60 cells (Ferrero et al., Blood, 1983, 61(1):171-9).

[3] = read-out: LC50 (the source's name)

## COC(=O)[C@H]1[C@@H](O)[C@@]2(O)c3c(OC)cc(OC4OC(C(O)CO)COC4OC)cc3O[C@@]2(c2ccc(OC)cc2)[C@@H]1c1ccccc1 (single isomer, unassigned) [Compound A]
A549; Homo sapiens, A549, 72 h, read-out: GI50 (3 day cultures), A549, lung
  GI50: 7 nM
A549; read-out: GI50 (3 day cultures), A549, lung
  GI50: 13 nM
SF268
  GI50: 3 nM
K562
  GI50: 1 nM
PC3
  GI50: 5 nM
[1]; 29 days post inoculation
  reduction of mean tumour weight: ~60%
[1]; vs vehicle
  mean tumour volume: greatly reduced increase in mean tumour volume
THP-1 cells
  pIC50: 7.82
IGROVI
  GI50: < 10 nM
IGROVI; [3]
  CC50: 2600 nM
M14
  GI50: < 10 nM
M14; [3]
  CC50: 51 nM
NCI-H460
  GI50: < 10 nM
NCI-H460; [3]
  CC50: 38000 nM
786-0; 786-0, renal, 48 hr
  CC50: 91200 nM
  GI50: < 10 nM
786-0; 786-0 renal tumour cells, 2 days of culture
  CC50: ~90000 nM
A549 cells
  SA-β-gal activity: failed to induce SA-β-gal activity
[2]
  morphology (macrophage differentiation): accumulation of cells that adhered to the plastic and exhibited numerous pseudopodia
